Assay results published in patent US20050054667A1, “Method of treating or inhibiting anti-arrhythmic events in male human patients” (Solvay Pharmaceuticals GmbH, priority 2003, published 2005).

Experiments:
[1] = test system: human patients with atrial fibrillation; test: Phase II clinical study: conversion of recent onset atrial fibrillation to normal sinus rhythm (NSR) by intravenous tedisamil; format: in vivo; conditions: ITT sample, DC cardioversion excluded
Method: (§1) This first clinical study in humans was a Multi-Center, Double-Blind, Randomized, Placebo-Controlled, Sequential Ascending Dose Groups Study to evaluate the Efficacy and Safety of Intravenous Tedisamil in the Rapid Conversion to Normal Sinus Rhythm in Patients with Atrial Fibrillation or Flutter. The active ingredient used was tedisamil dihydrochloride. The study was designed as a phase II study and executed in 35 to 40 centers in 3 to 4 countries. Study duration: Screening: up to 48 hours; treatment (in-patient): single 30-minute infusion; safety follow up: 24 hours (in-patient) with continuous telemetry and 28 day safety follow up.
(§2) Secondary efficacy objectives were to determine the percentage of human patients remaining in sinus rhythm at 2.5 hours after initiation of the intravenous infusion of tedisamil versus placebo; to determine the percentage of human patients remaining in sinus rhythm at 24 hours after initiation of the intravenous infusion of tedisamil versus placebo; to determine the time to conversion after the start of the infusion of tedisamil versus placebo; and to determine the dose- and plasma concentration-response relationships of tedisamil versus placebo. Safety objective: determining the safety and tolerability of tedisamil versus placebo.
(§3) The following methodology for the study in humans was applied: A multi-center, double-blind, randomized, placebo-controlled, sequential ascending dose groups study to evaluate the efficacy and safety of intravenous tedisamil versus placebo. The study drug was infused over 30 minutes, receiving half the dose within 10 minutes and half the dose within the remaining 20 minutes The first patient group received 0.4 mg/kg of body weight, infused as 0.2 mg/kg of body weight within 10 minutes, continued with 0.2 mg/kg of body weight infused within 20 minutes. The next higher dose 0.6 mg/kg of body weight (0.3 mg/kg of body weight infused over 10 min, continued with 0.3 mg/kg of body weight infused over 20 minutes) was only administered after the initial dose has been assessed (blinded) and found to be safe. A third stage may be added with a higher dose. Tedisamil blood concentrations were assessed during the infusion (at 10 and 30 minutes), at conversion to normal sinus rhythm, at recurrence and 24 hours after start of infusion.
(§4) The criteria for patient inclusion in the study was atrial fibrillation or flutter with a duration of more than 3 hours and less than 48 hours, occurring as a first or recurrent episode.
(§5) • Tedisamil (0.4 mg/kg body weight) • Tedisamil (0.6 mg/kg body weight) Both dosages were given as an intravenous regimen. Reference Therapy, Dose and Mode of Administration:
(§6) The total infusion time is 30 minutes, with half the dose infused within 10 minutes, and half the dose infused within the remaining 20 minutes.
(§7) Primary efficacy: the percentage of human patients converted to normal sinus rhythm (for at least 60 seconds) at any time within 2.5 hours after the initiation of the infusion of study drug.
(§8) All efficacy variables were evaluated separately for human patients with atrial fibrillation and human patients with atrial flutter. Percentages of conversion were compared among treatment groups using a logistic regression model with factors for treatment group and center. Times to conversion were compared among treatment groups using a Cox proportional hazards model with factors for treatment group and center. Dose-response and concentration-response relationships were examined using descriptive statistics.

[2] = test system: human patients with atrial flutter; test: Phase II clinical study: conversion of atrial flutter to normal sinus rhythm (NSR) by intravenous tedisamil; format: in vivo; conditions: ITT sample, DC cardioversion excluded
Method: as §1, §2, §3, §4
• Tedisamil (0.4 mg/kg body weight) • Tedisamil (0.6 mg/kg body weight) Both dosages were given as an intravenous regimen. Reference Therapy, Dose and Mode of Administration: […]
All efficacy variables were evaluated separately for human patients with atrial fibrillation and human patients with atrial flutter. […]

[3] = test system: Patients with Atrial Fibrillation or Flutter; test: Phase II clinical study: conversion to NSR, overall (atrial fibrillation or flutter); format: in vivo, human; conditions: for Conversion to NSR at any time within 2.5 hrs after start of infusion: Overall (fibrillation + flutter), ITT sample, DC cardioversion excluded
Method: as §1, §2, §3, §4, §5, §6, §7, §8

human patients = test: Clinical safety and tolerability of intravenous tedisamil (TdP, safety issues); format: in vivo
Method: as §2
Physical examination, ECG, 24-hour Holter monitoring, vital signs, laboratory evaluations and adverse events.

[4] = test system: Subjects with Recent Onset Atrial Fibrillation or Flutter; test: Phase III clinical study: rapid conversion to NSR by intravenous tedisamil sesquifumarate; format: in vivo, human; conditions: active ingredient tedisamil sesquifumarate
Method: This second clinical study in humans was a Multi-Center, Double-Blind, Randomized, Placebo-Controlled, Parallel Design Study to evaluate the Efficacy and Safety of Intravenous Tedisamil Sesquifumarate in the Rapid Conversion to Normal Sinus Rhythm in Subjects with Recent Onset Atrial Fibrillation or Flutter.
The active ingredient used was tedisamil sesqifumarate. […] Study duration: Screening: up to 48 hours; treatment (in-patient): single 30-minute infusion; safety follow up: 24 hours (in-patient) with continuous telemetry and 28 day safety follow up. […]

[5] = female, 0.4 mg/kg i.v. 30-min infusion
[6] = female, 0.6 mg/kg i.v. 30-min infusion
[7] = male, 0.4 mg/kg i.v. 30-min infusion
[8] = male, 0.6 mg/kg i.v. 30-min infusion

## C1CCC2(C1)C1CN(CC3CC3)CC2CN(CC2CC2)C1 [Tedisamil, N,N′-dicyclopropyl-methyl-9,9-tetramethylen-3,7-diazabicyclo[3,3,1]nonane]
[1]; [5]
  Conversion to NSR at any time within 2.5 hrs after start of infusion: 6/17 (35.3%)
[1]; [6]
  Conversion to NSR at any time within 2.5 hrs after start of infusion: 6/16 (37.5%)
[1]; female, age <65 yrs, 0.4 mg/kg i.v.
  Conversion to NSR at any time within 2.5 hrs after start of infusion: 2/5 (40.0%)
[1]; female, age <65 yrs, 0.6 mg/kg i.v.
  Conversion to NSR at any time within 2.5 hrs after start of infusion: 1/3 (33.3%)
[1]; female, age >=65 yrs, 0.4 mg/kg i.v.
  Conversion to NSR at any time within 2.5 hrs after start of infusion: 4/12 (33.3%)
[1]; female, age >=65 yrs, 0.6 mg/kg i.v.
  Conversion to NSR at any time within 2.5 hrs after start of infusion: 5/13 (38.5%)
[1]; [7]
  Conversion to NSR at any time within 2.5 hrs after start of infusion: 18/35 (51.4%)
[1]; [8]
  Conversion to NSR at any time within 2.5 hrs after start of infusion: 18/26 (69.2%)
[1]; male, age <65 yrs, 0.4 mg/kg i.v.
  Conversion to NSR at any time within 2.5 hrs after start of infusion: 10/20 (50.0%)
[1]; male, age <65 yrs, 0.6 mg/kg i.v.
  Conversion to NSR at any time within 2.5 hrs after start of infusion: 13/18 (72.2%)
[1]; male, age >=65 yrs, 0.4 mg/kg i.v.
  Conversion to NSR at any time within 2.5 hrs after start of infusion: 8/15 (51.4%)
[1]; male, age >=65 yrs, 0.6 mg/kg i.v.
  Conversion to NSR at any time within 2.5 hrs after start of infusion: 5/8 (62.5%)
[2]; female, 0.4 mg/kg i.v. 30-min infusion, percentage not given
  Conversion to NSR at any time within 2.5 hrs after start of infusion (patients converted/total): 0/2
[2]; [6]
  Conversion to NSR at any time within 2.5 hrs after start of infusion: 2/6 (33.3%)
[2]; [7]
  Conversion to NSR at any time within 2.5 hrs after start of infusion: 1/7 (14.3%)
[2]; [8]
  Conversion to NSR at any time within 2.5 hrs after start of infusion: 1/5 (20.0%)
[3]; Extension of infusion beyond the times indicated (30 minutes)
  Effect of extension of infusion on conversion rates: did not produce higher conversion rates
[3]; First (Phase II) study, active ingredient tedisamil dihydrochloride
  Gender difference related to efficacy (conversion rate, male vs female patients): higher conversion rate compared to women
[3]; [5]
  Conversion to NSR at any time within 2.5 hrs after start of infusion: 6/19 (31.6%)
[3]; [6]
  Conversion to NSR at any time within 2.5 hrs after start of infusion: 8/22 (36.4%)
[3]; [7]
  Conversion to NSR at any time within 2.5 hrs after start of infusion: 19/42 (45.2%)
[3]; [8]
  Conversion to NSR at any time within 2.5 hrs after start of infusion: 19/31 (61.3%)
Human patients; 30 min infusion regimen
  Observed TdP (Torsade de Point), distribution by gender: Almost all observed TdP (Torsade de Point) in 30 min regimen were in female human patients
Human patients; First (Phase II) study
  Safety issues, male vs female patients: fewer safety issues than female human patients
Human patients; high dosage on 0.72 in 3114 study
  TdP in male human patients: Only one human patient showed TdP
[4]
  Gender difference related to efficacy (conversion rate, male vs female patients): higher conversion rate compared to women
